Test [1] deals with relapsed/refractory AML and ALL. Description: phase II study in acute leukemia: response, blast/WBC reduction, time to progression. The test is classed as in vivo, human. The protocol:
Each cycle lasted 21 days. Patient could continue treatment on the study in the absence of disease progression or unacceptable toxicity. The next cycle of therapy could start if non-hematologic toxicity from previous cycle recovered to ≤grade 1, and dose delay of up to 3 weeks was allowed for recovery. Permanent dose reduction was required for any ≥grade 3 clinically significant non-hematologic adverse event (70 mg/m^2 → 50 mg/m^2; 50 mg/m^2 → 40 mg/m^2; 40 mg/m^2 → 30 mg/m^2; 30 mg/m^2 → discontinue). To allow for continued treatment of subjects whose cytopenias were due to leukemia and not due to drug toxicity, subsequent cycles of treatment were allowed if absolute neutrophil count (ANC) ≥0.5 × 10^9/L or for ANC <0.5 × 10^9/L but no more than 20 % below the baseline pretreatment levels and platelet count ≥20 × 10^9/L or platelets <20 × 10^9/L but no more than 20 % below the baseline pretreatment levels. Anti-emetic prophylaxis including serotonin-receptor antagonist, metoclopramide, or prochloperazine with or without dexamethasone was allowed. […] Dexamethasone 20 mg IV was given early if symptoms of cytokine release syndrome were observed.
Response was assessed by bone marrow (BM) examination on day 21 of cycles 1 and 2, and every 6 weeks thereafter until complete remission or progressive disease (PD). Response was determined according to the revised recommendations of the International Working Group (IWG) for AML [33]. Toxicities were graded according to the National Cancer Institute Common Terminology Criteria for Adverse Events (NCI CTCAE), version 3.0 (http://ctep.cancer.gov/protocolDevelopment/electronic_applications/docs/ctcaev3.pdf). Hematologic and chemistry profiles were monitored on day 1 and 2 of each cycle or until resolution of acute toxicities and subsequently at least once a week or more frequently depending on the individual patient’s needs.
The primary efficacy endpoint of the study was the ORR, including complete remission (CR), CR with incomplete count recovery (CRi), and partial remission.

In test [2] the test system is acute leukemia (WBC count). To be noted: cited from earlier work.
The mark [3] stands for this setting: AML patients, all treated subjects.

Like-named read-outs stand apart in the source and are kept apart here.

Consider “gemtuzumab ozogamicin [Mylotarg (GO), reference compound]”, for which, in test [1] (setting [3]), the “Beta Posterior Mean (Bayes estimate of the response rate)” value is listed as 0.167, the “Number of Non-responders” value is 7, the “Number of Responders” value came out at 1 and the “Posterior Probability (This treatment is better)” value worked out at 0.801. Further, the “Observed Response Rate (%)” value in test [1] (AML patients, all treated subjects, frequentist approach) is 12.500%. In test [1] (all treated AML patients), the “Median time to progression, Estimate” value is on record as 7.57 weeks and the “Number of Events (progression)” value was found to be 7. Besides, the “Hazard Ratio, Estimate (Mylotarg/Dinaciclib)” value in test [1] (time to progression, all treated AML patients) was 0.71.

Regarding `CN1CC[C@H](c2c(O)cc(O)c3c(=O)cc(-c4ccccc4Cl)oc23)[C@H](O)C1` [flavopiridol], the “patients with >50 % decrease in WBC count” value in test [2] (1-h bolus for 3 days) is given as about 44%; in test [2] (hybrid schedule for 3 days), “approximately 83%”.
